Experimental data reported in patent US10329334B2 (SANOFI, priority 2015, dated 2019).

What was measured:
[1] = target: natural wild-type hNGAL (human lipocalin 2) (Homo sapiens, UniProt P80188); details: Peek et al. 2012; cited from earlier work
[2] = target: T1, human lipocalin 2 (hNGAL) mutein SEQ ID NO: 35 (Homo sapiens, UniProt P80188, A60T/C107S/D97H/K145I/K154W/K93R/L123T/L56V/L90R/N85Q/Q48H/Q69G/R101D/R92I/S147R/S88D/T74A/W99Y/Y126Q/Y152I/Y72N); assay: SPR (Biacore T200), mutein SEQ ID NO: 35; format: binding
T1 construct: made in house; host or cells: E. coli
Method: (§6) In a Surface Plasmon Resonance (SPR) based assay a Biacore T200 instrument (GE Healthcare) was used to measure the binding affinity of muteins to pyoverdine I succinyl, -succinamid, -α-ketoglutaryl with complexed iron ion or to pyoverdine II succinyl, -succinamid, -α-ketoglutaryl with complexed iron ion or to pyoverdine III succinyl, -succinamid, -α-ketoglutaryl with complexed iron ion. Muteins selected for binding to pyoverdines and negative control (SEQ ID NO: 64) were biotinylated for 2 h at room temperature applying an appropriate excess of EZ-Link NHS-PEG4-Biotin (Thermo, Cat#21329) followed by separation of non-reacted Biotin using a Zeba Spin Desalting Plate (Thermo, Cat#21329) according to the manufactures instructions.
(§7) Applying a flow rate of 30 μl/min, a single cycle or multi cycle kinetics approach was used with a sample contact time of 120-180 s and a dissociation time of 900-2400 s. […] After ligand immobilization, for analysis using single cycle kinetics all 4-5 concentrations of Pvd were applied consecutively in ascending order before the dissociation was monitored. For analysis using multi cycle kinetics 4 dilutions of Pvd were applied, each followed a dissociation phase. All measurements were performed at 25° C. […] Data were evaluated with Biacore T200 Evaluation software (V 1.0). Double referencing was used. A 1:1 Binding model was used to fit the raw data.

[3] = target: T2, human lipocalin 2 (hNGAL) mutein SEQ ID NO: 9 (Homo sapiens, UniProt P80188, A60T/C107S/D97I/I61T/K145Y/K154N/K93D/L123D/L56W/L90Q/N116G/Q48H/Q69P/R101I/R92P/S147V/S88D/W99S/Y120N/Y126H/Y152G/Y72P); assay: SPR (Biacore T200), mutein SEQ ID NO: 9; format: binding; details: 25° C.
T2 construct: made in house; host or cells: E. coli
Method: as §6

[4] = target: T3, human lipocalin 2 (hNGAL) mutein SEQ ID NO: 53 (Homo sapiens, UniProt P80188, A60L/C107S/D97K/I61A/K154W/K93H/L123Q/L56E/L62R/L90R/N116L/N85D/Q69M/R101V/S125P/S147V/S88E/W99D/Y120D/Y126E/Y72M); assay: SPR (Biacore T200), mutein SEQ ID NO: 53; format: binding; details: 25° C.
T3 construct: made in house; host or cells: E. coli
Method: (§1) In a Surface Plasmon Resonance (SPR) based assay a Biacore T200 instrument (GE Healthcare) was used to measure the binding affinity of muteins to pyoverdine I succinyl, -succinamid, -α-ketoglutaryl with complexed iron ion or to pyoverdine II succinyl, -succinamid, -α-ketoglutaryl with complexed iron ion or to pyoverdine III succinyl, -succinamid, -α-ketoglutaryl with complexed iron ion. Muteins selected for binding to pyoverdines and negative control (SEQ ID NO: 64) were biotinylated for 2 h at room temperature applying an appropriate excess of EZ-Link NHS-PEG4-Biotin (Thermo, […]) followed by separation of non-reacted Biotin using a Zeba Spin Desalting Plate (Thermo, […]) according to the manufactures instructions.
In the SPR affinity assay, biotinylated muteins and negative control were captured on a sensor chip CAP using the Biotin CAPture Kit (GE Healthcare): Sensor Chip CAP is pre-immobilized with an ssDNA oligo. […]
(§2) Applying a flow rate of 30 μl/min, a single cycle or multi cycle kinetics approach was used with a sample contact time of 120-180 s and a dissociation time of 900-2400 s. […] After ligand immobilization, for analysis using single cycle kinetics all 4-5 concentrations of Pvd were applied consecutively in ascending order before the dissociation was monitored. […] Data were evaluated with Biacore T200 Evaluation software (V 1.0). […]

[5] = target: T4, human lipocalin 2 (hNGAL) mutein SEQ ID NO: 36 (Homo sapiens, UniProt P80188, A60T/C107S/D97H/K145I/K154W/K93R/L123T/L56V/L90R/N85D/Q69G/R101D/R92I/S147R/S88D/T74A/W99Y/Y126Q/Y152I/Y72N); assay: SPR (Biacore T200), mutein SEQ ID NO: 36; format: binding; details: 25° C.
T4 construct: made in house; host or cells: E. coli
Method: as §6

[6] = target: T5, human lipocalin 2 (hNGAL) mutein SEQ ID NO: 33 (Homo sapiens, UniProt P80188, A60E/C107S/D97N/E64D/I61V/K145N/K154W/K93N/L123V/L56V/L90R/N116K/N85Q/Q48H/Q69G/R101E/R92H/S147K/S88E/W99F/Y120N/Y126M/Y152G/Y72P); assay: SPR (Biacore T200), mutein SEQ ID NO: 33; format: binding; details: 25° C.
T5 construct: made in house; host or cells: E. coli
Method: as §6, §7

[7] = target: T6, human lipocalin 2 (hNGAL) mutein SEQ ID NO: 10 (Homo sapiens, UniProt P80188, A60T/C107S/D97T/I61T/K145Y/K154N/K93E/L123E/L56W/L90Q/N116D/Q48H/Q69P/R101I/R92P/S147D/S88D/V131M/W99S/Y120N/Y126H/Y152G/Y72P); assay: SPR (Biacore T200), mutein SEQ ID NO: 10; format: binding; details: 25° C.
T6 construct: made in house; host or cells: E. coli
Method: as §6

[8] = target: T7, human lipocalin 2 (hNGAL) mutein SEQ ID NO: 8 (Homo sapiens, UniProt P80188, A60T/C107S/D97I/I100T/I61T/K145Y/K154N/K93E/L123Q/L56W/L90Q/N116G/Q48H/Q69P/R101I/R92P/S147I/S88D/W99S/Y120S/Y126H/Y152G/Y72P); assay: SPR (Biacore T200), mutein SEQ ID NO: 8; format: binding; details: 25° C.
T7 construct: made in house; host or cells: E. coli
Method: as §6

[9] = target: T8, human lipocalin 2 (hNGAL) mutein SEQ ID NO: 32 (Homo sapiens, UniProt P80188, A60E/C107S/D97N/E64D/I61V/K145N/K154W/K93N/L123V/L56V/L90R/N116K/N85D/Q48H/Q69G/R101E/R92H/S147K/S88E/W99F/Y120N/Y126M/Y152G/Y72P); assay: SPR (Biacore T200), mutein SEQ ID NO: 32; format: binding; details: 25° C.
T8 construct: made in house; host or cells: E. coli
Method: as §6, §7

[10] = target: T9, human lipocalin 2 (hNGAL) mutein SEQ ID NO: 11 (Homo sapiens, UniProt P80188, A60T/C107S/D97V/I61T/K145Y/K154N/K93D/L123N/L56W/L90Q/N116G/Q48H/Q69P/R101I/R92P/S147V/S88D/W99S/Y120N/Y126H/Y152G/Y72P); assay: SPR (Biacore T200), mutein SEQ ID NO: 11; format: binding; details: 25° C.
T9 construct: made in house; host or cells: E. coli
Method: as §6

[11] = target: T10, human lipocalin 2 (hNGAL) mutein SEQ ID NO: 13 (Homo sapiens, UniProt P80188, A60T/C107S/D97I/I100T/I61T/K145Y/K154N/K93E/K95E/L123Q/L56W/L90Q/N116G/Q48H/Q69P/R101I/R92P/S147T/S88D/T74V/W99S/Y120S/Y126H/Y152G/Y72P); assay: SPR (Biacore T200), mutein SEQ ID NO: 13; format: binding; details: 25° C.
T10 construct: made in house; host or cells: E. coli
Method: as §6

[12] = target: T11, human lipocalin 2 (hNGAL) mutein SEQ ID NO: 16 (Homo sapiens, UniProt P80188, A60T/C107S/D97I/I100T/I61A/K145Y/K154N/K93E/K95E/L123Q/L56W/L90Q/N116G/N85D/Q69P/R101I/R92P/S147T/S88D/T156A/T74V/W99S/Y120S/Y126H/Y152G/Y72P); assay: SPR (Biacore T200), mutein SEQ ID NO: 16; format: binding; details: 25° C.
T11 construct: made in house; host or cells: E. coli
Method: as §6

[13] = target: T12, human lipocalin 2 (hNGAL) mutein SEQ ID NO: 57 (Homo sapiens, UniProt P80188, A60Y/C107S/D97R/I61W/K145L/K154N/K93R/L123Q/L56V/L90R/N116P/Q48H/Q69A/R101W/R92W/S147R/S88D/W99D/Y120E/Y126R/Y152A); assay: Solution binding ELISA, mutein SEQ ID NO: 57
T12 construct: made in house; host or cells: E. coli
Method: (§8) In detail, a 384-well plate suitable for fluorescence measurements (Greiner FLUOTRAC™ 600, black flat bottom, high-binding) was coated with 20 μl of Neutravidin at a concentration of 5 μg/ml in PBS over night at 4 C. After washing, the Neutravidin-coated wells were blocked with 100 μl blocking buffer containing 0.1% Tween 20 and 2% BSA (PBS-T/BSA) for 1 h at room temperature.
(§9) The residual supernatants were discarded and 20 μl HRP-labeled anti-hNGAL antibody was added at a predetermined optimal concentration in PBS-T/BSA and incubated for 1 h at RT. […] After washing, 20 μl fluorogenic HRP substrate (QuantaBlu, Thermo) was added to each well, and the reaction was allowed to proceed for 15 to 60 minutes. The fluorescence intensity of every well on the plate was read using a fluorescence microplate reader (Tecan or Molecular Devices). […] Curve fitting was performed using GraphPad Prism 4 software.

[14] = target: negative control lipocalin SEQ ID NO: 64 (Homo sapiens, UniProt P80188, C107S/Q48H); assay: SPR (Biacore T200), negative control SEQ ID NO: 64; format: binding; details: 200 nM
Method: as §1
In the SPR affinity assay, biotinylated muteins and negative control were captured on a sensor chip CAP using the Biotin CAPture Kit (GE Healthcare): Sensor Chip CAP is pre-immobilized with an ssDNA oligo. Undiluted Biotin CAPture Reagent (streptavidin conjugated with the complementary ss-DNA oligo) was applied at a flow rate of 2 μl/min for 300 s. Subsequently, 1 μg/ml to 100 μg/mL of biotinylated muteins or negative control were applied for 300 s at a flow rate of 5 μl/min. The reference channel was loaded with Biotin CAPture Reagent only.
as §2, with “monitored. For analysis using multi cycle kinetics 4 dilutions of Pvd were applied, each followed a dissociation phase. All measurements were performed at 25° C.” for “monitored.”, “1.0). Double referencing was used. A 1:1 Binding model was used to fit the raw data.” for “1.0).”

[15] = target: T13, human lipocalin 2 (hNGAL) muteins from affinity optimization of SEQ ID NO: 56 (Homo sapiens, UniProt P80188); assay: Solution binding ELISA, muteins from affinity optimization of SEQ ID NO: 56
T13 construct: C-terminal SA linker and Strep-tag II; E. coli
Method: (§3) Solution binding of muteins was assayed by a “Solution binding ELISA”, the principle of which was as follows: a constant concentration of the tested mutein was incubated with variable concentrations of ligands (Pvd I s, sa, aKG+/−Fe/Pvd II s, sa, aKG+/−Fe/Pvd III s, sa, aKG+/−Fe/Pch+/−Fe) for 1 h. After this pre-incubation in solution, an aliquot of the mutein/ligand mixture was transferred to an ELISA plate with biotinalyted Pvd I s (+Fe), Pvd II s (+Fe), Pvd III s (+Fe) or Pch immobilized via Neutravidin to measure the remaining concentration of free muteins. The concentration of free (non ligand-bound) muteins was determined via a quantitative ELISA setup.
(§4) In detail, a 384-well plate suitable for fluorescence measurements (Greiner FLUOTRAC™ 600, black flat bottom, high-binding) was coated with 20 μl of Neutravidin at a concentration of 5 μg/ml in PBS over night at 4 C. […]
(§5) The residual supernatants were discarded and 20 μl HRP-labeled anti-hNGAL antibody was added at a predetermined optimal concentration in PBS-T/BSA and incubated for 1 h at RT. […] The fluorescence intensity of every well on the plate was read using a fluorescence microplate reader (Tecan or Molecular Devices). To evaluate the data, free mutein concentration, c(mutein)free, was calculated based on the standard curve results, and plotted versus ligand concentration, c(Ligand). […]

[16] = target: T14, human lipocalin 2 (hNGAL) mutein SEQ ID NO: 56 (Homo sapiens, UniProt P80188, A60F/C107S/D97A/I61H/K145G/K154V/K93A/L123M/L56M/L90P/N116A/Q48H/Q69S/R101I/R92W/S147W/S88H/W99K/Y120G/Y126W/Y152T/Y72P); assay: Solution binding ELISA, mutein SEQ ID NO: 56
T14 construct: made in house; host or cells: E. coli
Method: as §8, §9

[17] = target: T15, human lipocalin 2 (hNGAL) muteins from affinity optimization of SEQ ID NO: 55 (Homo sapiens, UniProt P80188); assay: Solution binding ELISA, muteins from affinity optimization of SEQ ID NO: 55
T15 construct: C-terminal SA linker and Strep-tag II; E. coli
Method: as §3, §4, §5

T12 sequence (P80188 21-198 with the stated changes): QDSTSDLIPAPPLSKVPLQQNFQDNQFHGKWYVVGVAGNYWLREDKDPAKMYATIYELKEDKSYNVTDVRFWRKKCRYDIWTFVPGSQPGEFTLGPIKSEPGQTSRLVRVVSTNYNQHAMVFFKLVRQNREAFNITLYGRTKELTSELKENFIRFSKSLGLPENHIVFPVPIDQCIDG
T14 sequence (P80188 21-198 with the stated changes): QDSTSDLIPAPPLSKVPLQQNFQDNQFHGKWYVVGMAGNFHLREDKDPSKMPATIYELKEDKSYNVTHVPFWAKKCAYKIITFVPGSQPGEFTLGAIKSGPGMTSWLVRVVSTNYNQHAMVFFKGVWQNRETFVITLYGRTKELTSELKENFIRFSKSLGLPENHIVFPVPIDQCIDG
Sequence of natural wild-type hNGAL (human lipocalin 2) (P80188 21-198): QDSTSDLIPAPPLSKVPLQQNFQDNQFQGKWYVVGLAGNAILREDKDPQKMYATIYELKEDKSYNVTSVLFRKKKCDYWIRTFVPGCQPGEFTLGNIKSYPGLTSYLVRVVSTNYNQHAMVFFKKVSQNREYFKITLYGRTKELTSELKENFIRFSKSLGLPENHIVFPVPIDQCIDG
T15 sequence (P80188 21-198, stated change not applied): as the sequence (P80188 21-198) above
T1 sequence (P80188 21-198 with the stated changes): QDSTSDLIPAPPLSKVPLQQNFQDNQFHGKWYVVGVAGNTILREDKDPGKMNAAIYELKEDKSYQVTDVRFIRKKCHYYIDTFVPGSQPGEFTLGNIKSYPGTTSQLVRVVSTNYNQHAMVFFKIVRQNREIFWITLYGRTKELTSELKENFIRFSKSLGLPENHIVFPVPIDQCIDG
T10 sequence (P80188 21-198 with the stated changes): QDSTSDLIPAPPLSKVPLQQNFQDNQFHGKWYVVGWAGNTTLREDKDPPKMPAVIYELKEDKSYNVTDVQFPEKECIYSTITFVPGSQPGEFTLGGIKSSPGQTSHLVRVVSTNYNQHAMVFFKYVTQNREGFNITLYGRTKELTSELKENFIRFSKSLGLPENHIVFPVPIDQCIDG
T9 sequence (P80188 21-198 with the stated changes): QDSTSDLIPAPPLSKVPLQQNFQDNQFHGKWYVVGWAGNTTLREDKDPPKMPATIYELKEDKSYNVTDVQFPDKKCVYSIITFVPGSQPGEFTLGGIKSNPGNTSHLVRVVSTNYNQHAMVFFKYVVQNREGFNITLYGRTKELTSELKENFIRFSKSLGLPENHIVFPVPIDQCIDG
T3 sequence (P80188 21-198 with the stated changes): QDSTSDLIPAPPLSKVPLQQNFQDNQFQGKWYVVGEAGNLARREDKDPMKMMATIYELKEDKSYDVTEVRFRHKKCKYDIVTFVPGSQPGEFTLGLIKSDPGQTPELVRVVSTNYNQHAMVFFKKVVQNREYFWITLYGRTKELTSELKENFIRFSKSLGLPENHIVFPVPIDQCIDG
T6 sequence (P80188 other isoform, or with tags, fused parts or gaps with the stated changes): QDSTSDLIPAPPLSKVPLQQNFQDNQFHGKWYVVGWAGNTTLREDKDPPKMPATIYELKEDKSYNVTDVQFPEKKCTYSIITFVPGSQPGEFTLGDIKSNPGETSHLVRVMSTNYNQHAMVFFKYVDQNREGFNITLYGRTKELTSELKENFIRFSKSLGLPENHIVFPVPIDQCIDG
Sequence of negative control lipocalin SEQ ID NO: 64 (P80188 21-198 Q48H/C107S): as the sequence (P80188 21-198) above, with Q28H, C87S counted along it
T7 sequence (P80188 other isoform, or with tags, fused parts or gaps with the stated changes): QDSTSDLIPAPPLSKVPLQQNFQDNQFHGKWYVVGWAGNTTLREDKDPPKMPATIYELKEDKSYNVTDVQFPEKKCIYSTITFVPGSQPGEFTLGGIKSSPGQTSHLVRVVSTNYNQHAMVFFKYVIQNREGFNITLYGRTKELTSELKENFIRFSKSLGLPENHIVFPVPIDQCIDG
T5 sequence (P80188 21-198 with the stated changes): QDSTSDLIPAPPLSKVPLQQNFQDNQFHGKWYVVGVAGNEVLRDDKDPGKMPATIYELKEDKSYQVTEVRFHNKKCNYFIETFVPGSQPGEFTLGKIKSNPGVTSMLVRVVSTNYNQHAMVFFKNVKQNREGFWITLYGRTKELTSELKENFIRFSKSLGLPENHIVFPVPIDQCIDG
T8 sequence (P80188 21-198 with the stated changes): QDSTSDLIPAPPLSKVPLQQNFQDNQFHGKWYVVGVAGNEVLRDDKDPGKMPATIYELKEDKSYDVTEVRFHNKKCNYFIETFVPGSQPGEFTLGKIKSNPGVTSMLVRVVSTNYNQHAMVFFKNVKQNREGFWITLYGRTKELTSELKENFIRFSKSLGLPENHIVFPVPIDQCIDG
T4 sequence (P80188 21-198 with the stated changes): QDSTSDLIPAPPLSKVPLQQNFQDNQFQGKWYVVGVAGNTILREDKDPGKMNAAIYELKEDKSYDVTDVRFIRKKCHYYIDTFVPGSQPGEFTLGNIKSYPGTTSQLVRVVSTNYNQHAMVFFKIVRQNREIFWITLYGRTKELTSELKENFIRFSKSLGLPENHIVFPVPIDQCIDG
T11 sequence (P80188 21-198 with the stated changes): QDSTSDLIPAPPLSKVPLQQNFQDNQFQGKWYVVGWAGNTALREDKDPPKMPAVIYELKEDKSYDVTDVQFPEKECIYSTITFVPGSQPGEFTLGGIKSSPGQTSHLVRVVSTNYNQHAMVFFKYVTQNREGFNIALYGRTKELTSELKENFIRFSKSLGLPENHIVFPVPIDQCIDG
T2 sequence (P80188 other isoform, or with tags, fused parts or gaps with the stated changes): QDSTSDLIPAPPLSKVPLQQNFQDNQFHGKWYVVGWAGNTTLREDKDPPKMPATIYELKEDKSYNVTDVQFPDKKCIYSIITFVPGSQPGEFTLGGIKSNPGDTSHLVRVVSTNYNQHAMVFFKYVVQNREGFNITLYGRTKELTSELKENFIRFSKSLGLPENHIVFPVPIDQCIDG
T13 sequence (P80188 21-198, stated change not applied): as the sequence (P80188 21-198) above

With `O=C(N[C@H]1COC(=O)[C@@H](NC(=O)c2cccc(O)c2O)COC(=O)[C@@H](NC(=O)c2cccc(O)c2O)COC1=O)c1cccc(O)c1O` [Enterobactin, enterobactin, reference compound] as the compound, how does the “binding to wild-type hNGAL” value [1] read?
The value was “high affinity”.

And the “specificity and crossreactivity (binding)” value ([2]; 2 μM for all analytes)?
The value was “absence of binding”.

What does the source list for `O=C(N[C@H]1COC(=O)[C@@H](NC(=O)c2cccc(O)c2O)COC(=O)[C@@H](NC(=O)c2cccc(O)c2O)COC1=O)c1cccc(O)c1O.[Fe+3]` [Fe-Enterobactin, enterobactin]?
KD [3]: no bdg.; KD [4]: no bdg.; KD [5]: no bdg.; KD [6]: no bdg.; KD [7]: no bdg.; KD [8]: no bdg.; KD [9]: no bdg.; KD ([2]; 25° C.): no bdg.; KD [10]: no bdg.; KD [11]: no bdg.; KD [12]: no bdg.

Which results are given for `CN1C([C@H]2CSC(c3ccccc3O)=N2)SC[C@H]1C(=O)O.[Fe+3]` (stereo partly shown) [pch (+Fe), pyochelin]?
affinity (in words) [13]: two- to three digit nM affinity; absence of binding to negative control [14]: absence of binding; affinity (in words) [15]: no or weak affinity; affinity (in words) [16]: two- to three digit nM affinity; affinity (in words) ([17]; solution binding ELISA): single digit nM affinity

What does the source list for `CN1C([C@H]2CSC(c3ccccc3O)=N2)SC[C@H]1C(=O)O` (stereo partly shown) [pch (−Fe), pyochelin]?
affinity (in words) [13]: weak affinity or not at all; affinity (in words) [16]: weak affinity or not at all; improved affinity ([17]; versus SEQ ID NO: 55): more than 75 fold

Which “binding to wild-type hNGAL” value [1] does the source give for Pyoverdine here?
Its value is “did not bind”.
